# Measurements reported in patent US11174243B2, “Succinate forms and compositions of Bruton's tyrosine kinase inhibitors” (Sunesis Pharmaceuticals, Inc., priority 2016, dated 2021).
# Experiments:
# CD40 expression = test: CpG induced CD40 expression (flow cytometry); type: cell-based, human; details: 3.2 μM CpG stimulation, 1 μM
# Method: Methods: Primary CLL B cells were isolated from the whole blood of consented patients by FICOLL density centrifugation and rosette-sep negative selection. Annexin V and propidium iodide flow cytometry was used to measure patient CLL cell viability and 7AAD was used to measure viability in stromal co-culture. CD40 and CD86 expression was evaluated via flow cytometry subsequent to sustained 3.2 μM CpG stimulation. BCR signaling in primary CLL cells was investigated by immunoblot succeeding 1 hour treatment and following 1 hour or 24 hours of incubation with Compound 1 in XLA cell lines. MTS values were read after 24 hours of drug incubation. ITK inhibition was investigated via immunoblot after stimulation with anti-CD3 and anti-CD28 and incubation with Compound 1 for 1 hour. Compound 1 was used at a concentration of 1 μM in preclinical studies unless otherwise noted.
# TEC = biological target: T1, TEC (Homo sapiens, UniProt P42680); test: In vitro kinase assay, TEC
# T1 sequence (P42680 1-631): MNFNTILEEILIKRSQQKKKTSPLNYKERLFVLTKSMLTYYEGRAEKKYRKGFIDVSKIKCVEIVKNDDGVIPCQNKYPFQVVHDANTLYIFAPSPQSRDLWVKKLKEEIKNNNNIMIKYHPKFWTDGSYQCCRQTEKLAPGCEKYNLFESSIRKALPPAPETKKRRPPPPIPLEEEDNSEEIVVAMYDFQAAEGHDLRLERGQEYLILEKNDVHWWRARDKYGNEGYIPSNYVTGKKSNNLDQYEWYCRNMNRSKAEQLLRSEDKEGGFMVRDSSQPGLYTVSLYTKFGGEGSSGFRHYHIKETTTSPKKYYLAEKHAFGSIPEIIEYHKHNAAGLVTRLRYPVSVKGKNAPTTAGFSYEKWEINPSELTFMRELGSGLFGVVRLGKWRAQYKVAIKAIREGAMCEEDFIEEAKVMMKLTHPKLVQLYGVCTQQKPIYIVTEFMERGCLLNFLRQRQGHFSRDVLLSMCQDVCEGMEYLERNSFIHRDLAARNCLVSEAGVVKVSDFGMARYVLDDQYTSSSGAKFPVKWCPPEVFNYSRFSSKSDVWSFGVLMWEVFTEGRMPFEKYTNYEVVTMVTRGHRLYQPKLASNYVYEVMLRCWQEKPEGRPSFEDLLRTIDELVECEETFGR
# [1] = Phase 1a single-dose study in humans: safety; type: in vivo, human
# Method: A first-in-human Phase 1a randomized, double-blind, placebo-controlled, single-dose study, was conducted in 3 stages: In Stage 1, four sequential cohorts of 8 subjects each were randomly assigned to receive progressively higher single oral administrations of Compound 2 at doses of 50, 100, 200, and 300 mg (n=6 per cohort; 3 males and 3 females) or placebo (n=2 per cohort; 1 male and 1 female).
# The primary endpoint of safety was assessed by monitoring adverse events (AEs), laboratory abnormalities, and cardiac findings (ECG). Secondary endpoints included evaluation of the PK parameters of area under the plasma concentration-time curve (AUC), maximum plasma concentration (Cmax), time of maximum concentration (Tmax), apparent volume of distribution (Vd/F), terminal elimination half-life (t1/2), terminal elimination rate constant (λz), and apparent clearance (Cl/F) as well as the PD parameter of BTK inhibition in whole blood.
# [2] = Solubility of Compound 2 in solvent systems (slurries, HPLC); type: physicochemical; details: thermodynamic from solid, after one day at 20° C.
# Method: Slurries were set up in the solvents reported in Table 1 by weighing approximately 200 mg of Compound 2, suspending the solid in 0.5 mL of solvent and checking that excess solid remained un-dissolved. The prepared samples were also used to calculate Compound 2 solubility in the solvent systems used.
# The slurries prepared for the long term slurry experiments were sampled after one day at 20° C. to measure the solubility of Compound 2 in the solvent systems used. The solubility data were obtained by HPLC with respect to a response factor; six samples of Compound 2, dissolved in acetonitrile/methanol 40/60 at known concentration, were prepared and injected in HPLC. The resulting HPLC areas were used to calculate the HPLC response factor for Compound 2 (data not shown).
# Single-dose PK in dog = type: in vivo, male beagle dogs; details: beagle, plasma
# Method: A series of single-dose PK studies were conducted in rat, dog, and monkey to investigate the plasma PK of Compound 2 following single oral and single intravenous (IV) administration of Compound 2.
# A study was conducted to assess the PK of Compound 2 formulated as a suspension or as a solid in capsule. […] Three different dogs were used for each dose level. […] Inter-animal variability in Compound 2 free base plasma systemic exposure was observed after IV and oral administration irrespective of formulation.
# [3] = 1 mg/kg, IV, dose 1, 70% PEG400/H2O, free base measured
# [4] = male, 5 mg/kg, PO, dose not given, 0.1% CMC/0.2% Tween, free base measured
structure (smiles),measurement,setting,value
"NC(=O)[C@H]1CCN(c2ncnc(N)c2F)C[C@@H]1N1CCC[C@@H](Nc2cc(Cl)cc(C(F)(F)F)c2)C1=O [Compound 1, (3R,3′R,4′S)-1′-(6-amino-5-fluoropyrimidin-4-yl)-3-((3-chloro-5-(trifluoromethyl)phenyl)amino)-2-oxo-[1,3′-bipiperidine]-4′-carboxamide]",decrease of CpG induced CD40 expression,CD40 expression,8.7%
same,IC50,TEC,0.019 µM
NC(=O)[C@H]1CCN(c2ncnc(N)c2F)C[C@@H]1N1CCC[C@@H](Nc2cc(Cl)cc(C(F)(F)F)c2)C1=O [Compound 2],subjects with treatment-emergent AEs (TEAEs),"[1]; 24 subjects, single oral doses 50-300 mg, 8 subjects",33%
same,subjects with treatment-related TEAEs,"[1]; 24 subjects, single oral doses 50-300 mg, six subjects",25%
same,Grade 3 or higher AEs,[1]; single oral doses,No Grade 3 or higher AEs were reported
same,SAEs,[1]; single oral doses,No SAEs were reported
same,dose-dependent toxicity,[1]; single oral doses 50-300 mg,No obvious pattern of dose-dependent toxicity was observed
same,solubility at 1 day,"[2]; organic solvent or mixture, 1,4-dioxane",22 mg/mL
same,solubility at 1 day,"[2]; organic solvent or mixture, 2-propanol/water 90/10",41 mg/mL
same,solubility at 1 day,"[2]; organic solvent or mixture, 2-propanol",11 mg/mL
same,solubility at 1 day,"[2]; organic solvent or mixture, Acetone",11 mg/mL
same,solubility at 1 day,"[2]; organic solvent or mixture, Cyclohexanone",16 mg/mL
same,solubility at 1 day,"[2]; organic solvent or mixture, Ethanol/water 90/10",49 mg/mL
same,solubility at 1 day,"[2]; organic solvent or mixture, Ethanol",21 mg/mL
same,solubility at 1 day,"[2]; organic solvent or mixture, Ethyl acetate",2 mg/mL
same,solubility at 1 day,"[2]; organic solvent or mixture, Isopropyl acetate",1 mg/mL
same,solubility at 1 day,"[2]; organic solvent or mixture, Methanol/water 90/10",100 mg/mL
same,solubility at 1 day,"[2]; organic solvent or mixture, Methanol",103 mg/mL
same,solubility at 1 day,"[2]; organic solvent or mixture, Tert-butylmethyl ether",1 mg/mL
same,solubility at 1 day,[2]; Water,1 mg/mL
same,AUC(0-inf),Single-dose PK in dog; [3],1080 ng·h/mL
same,C0,Single-dose PK in dog; [3],1920 ng/mL
same,half-life,Single-dose PK in dog; [3],48 min
same,AUC(0-inf),Single-dose PK in dog; [4],3520 ng·h/mL
same,Cmax,Single-dose PK in dog; [4],2970 ng/mL
same,Tmax,Single-dose PK in dog; [4],48 min
same,bioavailability,"Single-dose PK in dog; male, 5 mg/kg, PO, dose not given, 0.1% CMC/0.2% Tween, read-out: % F (oral bioavailability)",65%
